Source: patent US20210261512A1, “NOVEL COMPOUNDS” (INFLAZOME LIMITED, priority 2018, published 2021)

Key:
NLRP3 [1] = biological target: T1, NLRP3 (Homo sapiens, UniProt Q96P20); assay: Human whole blood IL1β release assay; format: cell-based; settings: LPS 1 μg/ml, nigericin 10 μM, IL-1β AlphaLisa, 10 μM top dose (Example 2: top dose of 30 μM), read-out: HWB IC50
Experimental: For systemic delivery, the ability to inhibit NLRP3 when the compounds are present within the bloodstream is of great importance. For this reason, the NLRP3 inhibitory activity of a number of compounds in human whole blood was investigated in accordance with the following protocol.
Human whole blood in sodium-heparin or lithium-heparin tubes was obtained from healthy donors from a volunteer donor panel. • 1. Plate out 80 μl of whole blood containing 1 μg/ml of LPS in 96-well, clear bottom cell culture plate (Corning #3585) • 2. Add 10 μl compound (8 points half-log dilution with 10 μM top dose, unless stated otherwise) or vehicle (DMSO 0.1% FAC) to the appropriate wells • 3. Incubate for 3 hrs at 37° C., 5% CO2 • 4. Add 10 μl nigericin (Sigma #N7143) (10 μM FAC) to all wells • 5. Incubate for 1 hr at 37° C., 5% CO2 • 6. At the end of the incubation period, spin plates at 300×g for 5 mins to pellet cells and remove 20 μl of supernatant and add to 96-well v-bottom plates for IL-1β analysis (note: these plates containing the supernatants can be stored at −80° C. to be analysed at a later date) • 7. IL-1β was measured according to the manufacturer protocol (Perkin Elmer-AlphaLisa IL-1 Kit AL220F-5000) • 8. IC50 data is fitted to a non-linear regression equation (log inhibitor vs response-variable slope 4-parameters)

NLRP3 [2] = biological target: T1, NLRP3; assay: THP-1 cells pyroptosis assay; format: cell-based; design: Seed THP-1 cells (25,000 cells/well) containing 1.0 μg/ml LPS; host or cells: THP-1; settings: LPS 1.0 μg/ml, nigericin 5 μM, resazurin readout, 10 μM top dose (Example 2: top dose of 30 μM)
Outline: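 Pyroptosis induced by 5 μM nigericin (1 h) in LPS-primed (1 μg/ml) THP-1 cells, 25,000/well in serum-free RPMI, after 3 h compound pre-treatment (8 points, 10 μM top unless stated). Surviving cells measured with 100 μM resazurin, Ex 560/Em 590; IC50 via variable-slope 4-parameter regression.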

T1 sequence (Q96P20 whole entry): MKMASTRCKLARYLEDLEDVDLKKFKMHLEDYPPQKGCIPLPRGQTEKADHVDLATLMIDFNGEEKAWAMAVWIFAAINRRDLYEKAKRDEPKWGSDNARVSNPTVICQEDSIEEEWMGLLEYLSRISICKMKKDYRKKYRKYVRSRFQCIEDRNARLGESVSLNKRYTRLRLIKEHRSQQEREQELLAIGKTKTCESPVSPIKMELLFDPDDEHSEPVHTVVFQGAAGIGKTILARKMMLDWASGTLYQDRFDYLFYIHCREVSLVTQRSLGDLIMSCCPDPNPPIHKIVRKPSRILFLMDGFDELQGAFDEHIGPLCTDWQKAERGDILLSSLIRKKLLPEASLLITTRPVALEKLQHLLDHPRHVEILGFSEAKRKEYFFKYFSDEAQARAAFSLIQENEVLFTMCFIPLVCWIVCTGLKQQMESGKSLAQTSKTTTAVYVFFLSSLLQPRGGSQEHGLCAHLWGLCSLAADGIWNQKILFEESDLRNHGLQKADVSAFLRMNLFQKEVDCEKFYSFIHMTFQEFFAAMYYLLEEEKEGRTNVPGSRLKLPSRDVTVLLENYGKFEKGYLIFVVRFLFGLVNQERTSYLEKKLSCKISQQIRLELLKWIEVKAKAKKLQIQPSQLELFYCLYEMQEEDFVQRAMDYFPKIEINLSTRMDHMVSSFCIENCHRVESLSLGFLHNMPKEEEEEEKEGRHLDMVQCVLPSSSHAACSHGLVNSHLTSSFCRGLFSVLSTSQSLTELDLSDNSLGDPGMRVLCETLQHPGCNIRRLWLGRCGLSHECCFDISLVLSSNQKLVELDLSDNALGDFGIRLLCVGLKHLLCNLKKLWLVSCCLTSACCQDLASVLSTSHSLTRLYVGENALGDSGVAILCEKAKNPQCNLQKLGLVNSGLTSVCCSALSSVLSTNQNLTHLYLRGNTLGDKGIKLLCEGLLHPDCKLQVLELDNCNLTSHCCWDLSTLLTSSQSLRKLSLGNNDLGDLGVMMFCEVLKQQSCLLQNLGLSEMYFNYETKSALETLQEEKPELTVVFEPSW

| IC50 (NLRP3 [1]) [nM] | IC50 (NLRP3 [2]) [nM] | SMILES |
| --- | --- | --- |
| ≤ 5000 | ≤ 500 | CC(C)(O)[C@H]1CCN(S(=O)(=O)c2nnc(Nc3c4c(cc5c3CCC5)CCC4)[nH]2)C1 [Example 233, (S)-2-(1-((5-((1,2,3,5,6,7-hexahydro-s-indacen-4-yl)amino)-4H-1,2,4-triazol-3-yl)sulfonyl)pyrrolidin-3-yl)propan-2-ol] |
| ≤ 5000 | ≤ 1000 | CN(C)CC1CN(S(=O)(=O)c2nnc(Nc3c4c(cc5c3CCC5)CCC4)[nH]2)CCO1 (stereo not drawn) [Example 149, 5-((2-((dimethylamino)methyl)morpholino)sulfonyl)-N-(1,2,3,5,6,7-hexahydro-s-indacen-4-yl)-4H-1,2,4-triazol-3-amine] |
| ≤ 10000 | ≤ 500 | NS(=O)(=O)c1ccccc1S(=O)(=O)c1nnc(Nc2c3c(cc4c2CCC4)CCC3)[nH]1 [Example 325, 2-((5-((1,2,3,5,6,7-hexahydro-s-indacen-4-yl)amino)-4H-1,2,4-triazol-3-yl)sulfonyl)benzenesulfonamide] |
| ≤ 500 | ≤ 500 | [2H]C([2H])([2H])Oc1cc(-c2ccc3c(c2Nc2nnc(S(=O)(=O)N4CCC(N(C)C)CC4)[nH]2)CCC3)ccn1 [Example 227, 1-((5-((5-(2-(methoxy-d3)pyridin-4-yl)-2,3-dihydro-1H-inden-yl)amino)-4H-1,2,4-triazol-3-yl)sulfonyl)-N,N-dimethylpiperidin-4-amine] |
| ≤ 1000 | ≤ 5000 | CN1CCC(N(C)S(=O)(=O)c2nnc(Nc3c4c(cc5c3CCC5)CCC4)[nH]2)C1 (stereo not drawn) [Example 87, 5-((1,2,3,5,6,7-hexahydro-s-indacen-4-yl)amino)-N-methyl-N-(1-methylpyrrolidin-3-yl)-4H-1,2,4-triazole-3-sulfonamide] |
| ≤ 10000 | ≤ 5000 | O=S(=O)(c1nnc(Nc2c3c(cc4c2CCC4)CCC3)[nH]1)N1CC2(CCOC2)C1 [Example 146, 5-(6-oxa-2-azaspiro[3.4]octan-2-ylsulfonyl)-N-(1,2,3,5,6,7-hexahydro-s-indacen-4-yl)-4H-1,2,4-triazol-3-amine] |
| ≤ 500 | ≤ 500 | CCN(CC)C[C@H]1CCN(S(=O)(=O)c2nnc(Nc3c4c(cc5c3CCC5)CCC4)[nH]2)C1 [Example 144, (R)-5-((3-((diethylamino)methyl)pyrrolidin-1-yl)sulfonyl)-N-(1,2,3,5,6,7-hexahydro-s-indacen-4-yl)-4H-1,2,4-triazol-3-amine] |
| ≤ 5000 | ≤ 500 | CN(C)CCn1ccc(S(=O)(=O)c2nnc(Nc3c4c(cc5c3CCC5)CCC4)[nH]2)n1 [Example 349, 5-((1-(2-(dimethylamino)ethyl)-1H-pyrazol-3-yl)sulfonyl)-N-(1,2,3,5,6,7-hexahydro-s-indacen-4-yl)-4H-1,2,4-triazol-3-amine] |
| ≤ 10000 | ≤ 1000 | O=S(=O)(c1nnc(Nc2c3c(cc4c2CCC4)CCC3)[nH]1)N1CC[C@H](C2(O)CC2)C1 [Example 345, (S)-1-(1-((5-((1,2,3,5,6,7-hexahydro-s-indacen-4-yl)amino)-4H-1,2,4-triazol-3-yl)sulfonyl)pyrrolidin-3-yl)cyclopropanol] |
| ≤ 5000 | ≤ 1000 | CN(C)C1CCN(S(=O)(=O)c2nnc(Nc3c(-c4ccncc4)ccc4c3CCO4)[nH]2)CC1 [Example 220, N,N-dimethyl-1-((5-((5-(pyridin-4-yl)-2,3-dihydrobenzofuran-4-yl)amino)-4H-1,2,4-triazol-3-yl)sulfonyl)piperidin-4-amine] |
| ≤ 500 | ≤ 500 | CCN1CCC12CCN(S(=O)(=O)c1nnc(Nc3c4c(cc5c3CCC5)CCC4)[nH]1)CC2 [Example 257, 5-((1-ethyl-1,7-diazaspiro[35]nonan-7-yl)sulfonyl)-N-(1,2,3,5,6,7-hexahydro-s-indacen-4-yl)-4H-1,2,4-triazol-3-amine] |
| ≤ 5000 | ≤ 5000 | O=S(=O)(c1nnc(Nc2c3c(cc4c2CCC4)CCC3)[nH]1)N1CC2(CNC2)C1 [Example 150, 5-(2,6-Diazaspiro[33]heptan-2-ylsulfonyl)-N-(1,2,3,5,6,7-hexahydro-s-indacen-4-yl)-4H-1,2,4-triazol-3-amine] |
